What was measured:
PTPN2 (i.e., TC-PTP) = molecular target: T1, PTPN2 (i.e., TC-PTP) (Homo sapiens, UniProt P17706); test: Phosphatase activity assay (DiFMUP substrate), PTPN2; format: biochemical; settings: compounds binned ≤1 uM or >1 uM
T1 sequence (P17706 1-415): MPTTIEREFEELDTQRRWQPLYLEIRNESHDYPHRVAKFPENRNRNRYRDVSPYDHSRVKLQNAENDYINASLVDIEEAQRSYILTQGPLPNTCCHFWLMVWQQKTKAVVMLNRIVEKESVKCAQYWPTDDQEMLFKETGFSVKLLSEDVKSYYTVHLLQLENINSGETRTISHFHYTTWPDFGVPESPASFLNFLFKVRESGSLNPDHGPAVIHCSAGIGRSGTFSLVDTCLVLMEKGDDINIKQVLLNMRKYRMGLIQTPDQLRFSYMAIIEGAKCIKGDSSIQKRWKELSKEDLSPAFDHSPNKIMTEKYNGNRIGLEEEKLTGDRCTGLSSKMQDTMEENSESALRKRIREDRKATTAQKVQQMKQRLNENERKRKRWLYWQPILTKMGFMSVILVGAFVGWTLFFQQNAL
Procedure: (§1) The selectivity and potency of a small molecule PTPN2 inhibitor as provided herein against one or more protein tyrosine phosphatase (PTP) enzymes, and specifically against PTPN2, is assessed in various ways. The one or more PTP enzymes comprise Mycobacterium protein tyrosine phosphatase A (mPTPA), Mycobacterium protein tyrosine phosphatase B (mPTPB), PTPN1 (i.e., PTP1B), PTPN2 (i.e., TC-PTP), PTPN22 (i.e., LYP), SHP-1, SHP-2, FAP-1, Meg2, HePTP, Laforin, VHX, VHR, LMWPTP, Cdc14A, LAR, CD45, PTPRG, a fragment thereof, a variant thereof, and a combination thereof. Selectivity and potency of a small molecule PTPN2 inhibitor is evaluated using a PTP activity inhibition assay. The assay is performed using a buffer comprising 50 mM HEPES buffer pH 7.5, 150 mM NaCl, 0.5 mM EDTA, 1 mM DTT, 0.001% Tween-20.
(§2) The assay is performed using a phosphated substrate, e.g., 10 mM 6,8-Difluoro-4-Methylumbelliferyl Phosphate (DIFMUP) that is stored at −20° C. Alternatively or in addition to, the assay is performed using other phosphated substrate (e.g., fluorescein diphosphate). Each PTP enzyme is diluted in the assay buffer
(§3) The assay can be carried out at room temperature in multiplate format, e.g., using 384 well plates. A small molecule PTPN2 inhibitor dissolved in DMSO at one of 10 concentrations from a serial dilution or DMSO alone for control is added to each well. A mixture of the assay buffer comprising PTP enzyme (e.g., 0.025 ng/ul PTPN2) is added to each well and mixed for approximately 2 minutes. The reaction is initiated by adding DiFMUP diluted in the assay buffer to a final concentration of approximately 45 μM DiFMUP in PTPN2 assay. For each PTP enzyme, DiFMUP is added at the Km (Michaelis constant) of the enzyme that had been independently determined. The phosphatase activity of the PTP enzyme is assessed by monitoring appearance of a fluorescent product (6,8-difluoro-7-hydroxyl-4-coumarin (DiFMU) from DiFMUP) continuously for about 15 to 30 minutes, using the INFINITE M1000Pro plate reader (Tecan) with excitation at 360 nm and emission at 450 nm (cutoff filter at 435 nm) for DiFMU. Each assay is performed at least in duplicate. The rate (e.g., the initial rate) of DiFMU formation is plotted against the concentration of the small molecule PTPN2 inhibitor, and the data is fitted (e.g., using a 4-parameter equation) to determine the inflection point of the fit as the IC50 of the small molecule PTPN2 inhibitor for a specific enzyme. Utilizing this assay, the ability of the compounds in Table 2 to inhibit PTPN2 and PTP1B has been assessed. Table 3 summarizes the IC50 values.

PTPN1 (i.e., PTP1B) = molecular target: T2, PTPN1 (i.e., PTP1B) (Homo sapiens, UniProt P18031); test: Phosphatase activity assay (DiFMUP substrate), PTP1B; format: biochemical; settings: compounds binned ≤1 uM or >1 uM
T2 sequence (P18031 1-435): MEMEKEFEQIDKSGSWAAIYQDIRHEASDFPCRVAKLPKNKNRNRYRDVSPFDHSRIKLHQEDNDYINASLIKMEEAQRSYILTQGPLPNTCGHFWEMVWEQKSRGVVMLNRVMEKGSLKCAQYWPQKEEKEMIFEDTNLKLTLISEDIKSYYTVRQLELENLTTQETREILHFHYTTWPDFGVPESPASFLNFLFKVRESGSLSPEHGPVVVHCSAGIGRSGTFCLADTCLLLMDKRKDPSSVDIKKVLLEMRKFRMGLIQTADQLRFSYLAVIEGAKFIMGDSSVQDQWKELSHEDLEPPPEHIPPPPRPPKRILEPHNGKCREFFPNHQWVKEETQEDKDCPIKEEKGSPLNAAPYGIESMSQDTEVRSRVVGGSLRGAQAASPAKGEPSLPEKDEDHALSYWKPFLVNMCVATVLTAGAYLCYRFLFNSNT
Procedure: as §1, §2, §3

SMILES	IC50 (PTPN2 (i.e., TC-PTP))	IC50 (PTPN1 (i.e., PTP1B))
Cc1ccc(-c2ccc(O)c(N3CC(=O)NS3(=O)=O)c2F)o1 [Compound 126, 5-(2-fluoro-6-hydroxy-3-(5-methylfuran-2-yl)phenyl)-1,2,5-thiadiazolidin-3-one 1,1-dioxide]	≤ 1000 nM	≤ 1000 nM
O=C1CN(c2c(O)ccc(-c3cc(N4CC(c5ccccc5)C4)n[nH]3)c2F)S(=O)(=O)N1 [Compound 356, 5-(2-fluoro-6-hydroxy-3-(3-(3-phenylazetidin-1-yl)-1H-pyrazol-5-yl)phenyl)-1,2,5-thiadiazolidin-3-one 1,1-dioxide]	≤ 1000 nM	≤ 1000 nM
CC(C)CCC1C=C(c2ccc(O)c(N3CC(=O)NS3(=O)=O)c2F)CN1 (stereo not drawn) [Compound 541, 5-(2-fluoro-6-hydroxy-3-(5-isopentyl-2,5-dihydro-1H-pyrrol-3-yl)phenyl)-1,2,5-thiadiazolidin-3-one 1,1-dioxide]	≤ 1000 nM	≤ 1000 nM
O=C1CN(c2c(O)ccc(-c3cn(-c4ccc(F)c(F)c4)cn3)c2F)S(=O)(=O)N1 [Compound 289, 5-(3-(1-(3,4-difluorophenyl)-1H-imidazol-4-yl)-2-fluoro-6-hydroxyphenyl)-1,2,5-thiadiazolidin-3-one 1,1-dioxide]	≤ 1000 nM	≤ 1000 nM
CCC1C=C(c2ccc(O)c(N3CC(=O)NS3(=O)=O)c2F)CNC1 (stereo not drawn) [Compound 497, 5-(3-(5-ethyl-1,2,5,6-tetrahydropyridin-3-yl)-2-fluoro-6-hydroxyphenyl)-1,2,5-thiadiazolidin-3-one 1,1-dioxide]	≤ 1000 nM	≤ 1000 nM
O=C1CN(c2c(O)ccc(-c3ccc4ocnc4c3)c2F)S(=O)(=O)N1 [Compound 170, 5-(3-(benzo[d]oxazol-5-yl)-2-fluoro-6-hydroxyphenyl)-1,2,5-thiadiazolidin-3-one 1,1-dioxide]	≤ 1000 nM	≤ 1000 nM
Nc1nc2ccc(-c3ccc(O)c(N4CC(=O)NS4(=O)=O)c3F)cc2s1 [Compound 135, 5-(3-(2-aminobenzo[d]thiazol-6-yl)-2-fluoro-6-hydroxyphenyl)-1,2,5-thiadiazolidin-3-one 1,1-dioxide]	≤ 1000 nM	≤ 1000 nM
COC(=O)C1C=C(c2ccc(O)c(N3CC(=O)NS3(=O)=O)c2F)CN1 (stereo not drawn) [Compound 399, methyl 4-(3-(1,1-dioxido-4-oxo-1,2,5-thiadiazolidin-2-yl)-2-fluoro-4-hydroxyphenyl)-2,5-dihydro-1H-pyrrole-2-carboxylate]	≤ 1000 nM	≤ 1000 nM
O=C1CN(c2c(O)ccc(-c3cnn(-c4ccccc4)c3)c2F)S(=O)(=O)N1 [Compound 147, 5-(2-fluoro-6-hydroxy-3-(1-phenyl-1H-pyrazol-4-yl)phenyl)-1,2,5-thiadiazolidin-3-one 1,1-dioxide]	≤ 1000 nM	≤ 1000 nM
O=C1CN(c2c(O)ccc(-c3cn(C4CC4)nc3F)c2F)S(=O)(=O)N1 [Compound 440, 5-(3-(1-cyclopropyl-3-fluoro-1H-pyrazol-4-yl)-2-fluoro-6-hydroxyphenyl)-1,2,5-thiadiazolidin-3-one 1,1-dioxide]	≤ 1000 nM	≤ 1000 nM
O=C1CN(c2c(O)ccc(-c3cn(-c4ccccc4F)cn3)c2F)S(=O)(=O)N1 [Compound 437, 5-(2-fluoro-3-(1-(2-fluorophenyl)-1H-imidazol-4-yl)-6-hydroxyphenyl)-1,2,5-thiadiazolidin-3-one 1,1-dioxide]	≤ 1000 nM	≤ 1000 nM
O=C1CN(c2c(O)ccc(-c3cc(C4CCOCC4)n[nH]3)c2F)S(=O)(=O)N1 [Compound 420, 5-(2-fluoro-6-hydroxy-3-(3-(tetrahydro-2H-pyran-4-yl)-1H-pyrazol-5-yl)phenyl)-1,2,5-thiadiazolidin-3-one 1,1-dioxide]	≤ 1000 nM	≤ 1000 nM
Cn1cc(-c2ccc(O)c(N3CC(=O)NS3(=O)=O)c2F)nc1C1CC1(F)F (stereo not drawn) [Compound 472, 5-(3-(2-(2,2-difluorocyclopropyl)-1-methyl-1H-imidazol-4-yl)-2-fluoro-6-hydroxyphenyl)-1,2,5-thiadiazolidin-3-one 1,1-dioxide]	> 1000 nM	≤ 1000 nM
O=C1CN(c2c(O)ccc(-c3c[nH]c(C4CC4)c3)c2F)S(=O)(=O)N1 [Compound 394, 5-(3-(5-cyclopropyl-1H-pyrrol-3-yl)-2-fluoro-6-hydroxyphenyl)-1,2,5-thiadiazolidin-3-one 1,1-dioxide]	≤ 1000 nM	≤ 1000 nM
O=C1CN(c2c(O)ccc(-c3cnn(C4(C(F)F)CC4)c3)c2F)S(=O)(=O)N1 [Compound 542, 5-(3-(1-(1-(difluoromethyl)cyclopropyl)-1H-pyrazol-4-yl)-2-fluoro-6-hydroxyphenyl)-1,2,5-thiadiazolidin-3-one 1,1-dioxide]	≤ 1000 nM	≤ 1000 nM
O=C1CN(c2c(O)ccc(-c3cc(C4CC4(F)F)nn3CC(F)F)c2F)S(=O)(=O)N1 (stereo not drawn) [Compound 491, 5-(3-(3-(2,2-difluorocyclopropyl)-1-(2,2-difluoroethyl)-1H-pyrazol-5-yl)-2-fluoro-6-hydroxyphenyl)-1,2,5-thiadiazolidin-3-one 1,1-dioxide]	≤ 1000 nM	≤ 1000 nM
O=C1CN(c2c(O)ccc(-c3cnn(CC4CC5CCC(C4)O5)c3)c2F)S(=O)(=O)N1 (stereo not drawn) [Compound 422, 5-(3-(1-((8-oxabicyclo[3.2.1]octan-3-yl)methyl)-1H-pyrazol-4-yl)-2-fluoro-6-hydroxyphenyl)-1,2,5-thiadiazolidin-3-one 1,1-dioxide]	≤ 1000 nM	≤ 1000 nM
O=C1CN(c2c(O)ccc(-c3cnn(CCC(F)F)c3)c2F)S(=O)(=O)N1 [Compound 510, 5-(3-(1-(3,3-difluoropropyl)-1H-pyrazol-4-yl)-2-fluoro-6-hydroxyphenyl)-1,2,5-thiadiazolidin-3-one 1,1-dioxide]	≤ 1000 nM	≤ 1000 nM
CC(C)c1cc(-c2ccc(O)c(N3CC(=O)NS3(=O)=O)c2F)[nH]n1 [Compound 379, 5-(2-fluoro-6-hydroxy-3-(3-isopropyl-1H-pyrazol-5-yl)phenyl)-1,2,5-thiadiazolidin-3-one 1,1-dioxide]	≤ 1000 nM	≤ 1000 nM
O=C1CN(c2c(O)ccc(-c3cn(-c4cccc(F)c4)cn3)c2F)S(=O)(=O)N1 [Compound 181, 5-(2-fluoro-3-(1-(3-fluorophenyl)-1H-imidazol-4-yl)-6-hydroxyphenyl)-1,2,5-thiadiazolidin-3-one 1,1-dioxide]	≤ 1000 nM	≤ 1000 nM
O=C1CN(c2c(O)ccc(-c3cnn(C(F)(F)F)c3)c2F)S(=O)(=O)N1 [Compound 264, 5-(2-fluoro-6-hydroxy-3-(1-(trifluoromethyl)-1H-pyrazol-4-yl)phenyl)-1,2,5-thiadiazolidin-3-one 1,1-dioxide]	≤ 1000 nM	≤ 1000 nM
